Read-outs that look alike come from different tables or passages of the source.
How the values were obtained:
MCMV = experiment: In vivo treatment of mice infected with murine cytomegalovirus (MCMV)
Protocol: Compound UMJD 183 was tested in mice infected with murine cytomegalovirus (MCMV). This animal model has been recognized as having capabilities predictive of efficacy in humans.
Compound UMJD 183 and the drug ganciclovir (DHPG) were administered to groups of 15 mice each at doses and times of administration shown in Table 3. Each compound at all doses was administered intraperitoneally twice daily for five days beginning at either 6, 24 or 48 hours after virus inoculation. Animals were observed daily and the number dying each day recorded.

Growth of HFF cells = assay type: cell-based, human; details: human, hff cells; 100 μM; 70-hour incubation; read-out: reduction of number of HFF cells
Protocol: (§1) Population doubling times and cell viability were measured in uninfected HFF and/or KB cells. Cells were planted in replicate 6-well plastic tissue culture dishes or in 25 cm^2 flasks as described above in part 1. Following an incubation period during which cells attached to the substrate, medium was decanted, the cell sheet rinsed once with HBS, and fresh medium added. The medium consisted of MEM(E) with 1.1 gm NaHCO3 /liter and 10% fetal bovine or calf serum plus appropriate log or half-log concentrations of drug. After additional periods of incubation from 1 to 72 hours at 37° C., cells were harvested by means of 0.05% trypsin plus 0.02% EDTA in a HEPES-buffered salt solution. Cells were enumerated using either a Coulter counter or a hemocytometer and viability determining using trypsan blue dye exclusion.
The effect of these compounds on the growth of human diploid fibroblasts (HFF cells) was less pronounced. During a 70-hour incubation, control cells underwent two doublings. […] A 100 μM concentration reduced the number of cells by less than 10%.

human PBLs = experiment: DNA synthesis in mitogen-stimulated human PBLs; assay type: cell-based; details: pokeweed mitogen or concanavalin A; 0.1, 1, 10 and 100 μM
[1] = Drug toxicity control in uninfected mice; assay type: in vivo; details: for mortality: mouse, in vivo, ip, read-out: Mortality Percent (Toxicity)
[2] = Growth of KB cells (population doubling times); assay type: cell-based, human; details: human, kb cells; 100 μM; read-out: reduction of KB cell growth rate
Protocol: as §1
In more extensive cytotoxicity testing, the halogenated compounds were tested for effects on the growth of KB cells. Populations doubling times were calculated from the logarithmic portions of growth curves and were as follows: […]

Nc1nc(O)c2ncn(COC(CO)CO)c2n1 [Ganciclovir (DHPG), reference compound]
MDD (Mean Day of Death) (MCMV; 0.6 mg/kg at 6 h): 4.6 days | Mortality Number (MCMV; 0.6 mg/kg at 6 h): 14/15 | Mortality Percent (MCMV; 0.6 mg/kg at 6 h): 93% | MDD (Mean Day of Death) (MCMV; 0.6 mg/kg at 24 h): 5.4 days | Mortality Number (MCMV; 0.6 mg/kg at 24 h): 12/15 | Mortality Percent (MCMV; 0.6 mg/kg at 24 h): 80% | MDD (Mean Day of Death) (MCMV; 0.6 mg/kg at 48 h): 5.3 days | Mortality Number (MCMV; 0.6 mg/kg at 48 h): 14/15 | Mortality Percent (MCMV; 0.6 mg/kg at 48 h): 93% | MDD (Mean Day of Death) (MCMV; 1.9 mg/kg at 6 h): 5.4 days | Mortality Number (MCMV; 1.9 mg/kg at 6 h): 5/15 | Mortality Percent (MCMV; 1.9 mg/kg at 6 h): 33% | MDD (Mean Day of Death) (MCMV; 1.9 mg/kg at 24 h): 4.9 days | Mortality Number (MCMV; 1.9 mg/kg at 24 h): 12/15 | Mortality Percent (MCMV; 1.9 mg/kg at 24 h): 80% | MDD (Mean Day of Death) (MCMV; 1.9 mg/kg at 48 h): 4.9 days | Mortality Number (MCMV; 1.9 mg/kg at 48 h): 11/15 | Mortality Percent (MCMV; 1.9 mg/kg at 48 h): 73% | MDD (Mean Day of Death) (MCMV; 5.6 mg/kg at 6 h): 4.2 days | Mortality Number (MCMV; 5.6 mg/kg at 6 h): 5/15 | Mortality Percent (MCMV; 5.6 mg/kg at 6 h): 33% | MDD (Mean Day of Death) (MCMV; 5.6 mg/kg at 24 h): 5.3 days | Mortality Number (MCMV; 5.6 mg/kg at 24 h): 7/15 | Mortality Percent (MCMV; 5.6 mg/kg at 24 h): 47% | MDD (Mean Day of Death) (MCMV; 5.6 mg/kg at 48 h): 5.5 days | Mortality Number (MCMV; 5.6 mg/kg at 48 h): 10/15 | Mortality Percent (MCMV; 5.6 mg/kg at 48 h): 67% | MDD (Mean Day of Death) (MCMV; 16.7 mg/kg at 6 h): 3.8 days | Mortality Number (MCMV; 16.7 mg/kg at 6 h): 4/15 | Mortality Percent (MCMV; 16.7 mg/kg at 6 h): 27% | MDD (Mean Day of Death) (MCMV; 16.7 mg/kg at 24 h): 5.3 days | Mortality Number (MCMV; 16.7 mg/kg at 24 h): 7/15 | Mortality Percent (MCMV; 16.7 mg/kg at 24 h): 47% | MDD (Mean Day of Death) (MCMV; 16.7 mg/kg at 48 h): 5.5 days | Mortality Number (MCMV; 16.7 mg/kg at 48 h): 8/15 | Mortality Percent (MCMV; 16.7 mg/kg at 48 h): 53%

Nc1ncnc2c1c(Cl)cn2COCCO [UMJD 100, 4-Amino-5-chloro-7-(2-hydroxyethoxymethyl)pyrrolo[2,3-d]-pyrimidine]
inhibition at 70 h, 100 µM (Growth of HFF cells): < 10% | effect on DNA synthesis in human PBLs (human PBLs): did not affect DNA synthesis

Nc1ncnc2c1c(Br)cn2COC(CO)CO [UMJD 183, 4-amino-5-bromo-7-[(1,3-dihydroxy-2-propoxy)methyl]-pyrrolo[2,3-d]pyrimidine]
Mortality Number (Toxicity) ([1]; 1.9 mg/kg, no virus): 0/15 | Mortality Number (Toxicity) ([1]; 5.6 mg/kg, no virus): 0/15 | MDD (Toxicity) ([1]; 16.7 mg/kg, no virus): 5.0 days | Mortality Number (Toxicity) ([1]; 16.7 mg/kg, no virus): 1/15 | Mortality Number (Toxicity) ([1]; 50 mg/kg, no virus): 0/15 | toxicity in uninfected animals (in words) ([1]; administered alone to uninfected animals): virtually no toxicity | deaths in uninfected animals ([1]; all doses together): 1 death in 60 animals | mortality ([1]; 1.9 mg/kg, no virus): 0% | mortality ([1]; 5.6 mg/kg, no virus): 0% | mortality ([1]; 16.7 mg/kg, no virus): 7% | mortality ([1]; 50 mg/kg, no virus): 0% | MDD (Mean Day of Death) (MCMV; 1.9 mg/kg at 6 h): 6.2 days | Mortality Number (MCMV; 1.9 mg/kg at 6 h): 5/15 | Mortality Percent (MCMV; 1.9 mg/kg at 6 h): 33% | MDD (Mean Day of Death) (MCMV; 1.9 mg/kg at 24 h): 4.8 days | Mortality Number (MCMV; 1.9 mg/kg at 24 h): 9/15 | Mortality Percent (MCMV; 1.9 mg/kg at 24 h): 60% | MDD (Mean Day of Death) (MCMV; 1.9 mg/kg at 48 h): 4.8 days | Mortality Number (MCMV; 1.9 mg/kg at 48 h): 10/15 | Mortality Percent (MCMV; 1.9 mg/kg at 48 h): 67% | number of animals surviving virus infection (in words) (MCMV; 5.6 mg/kg): highly significant increases in the number of animals surviving | MDD (Mean Day of Death) (MCMV; 5.6 mg/kg at 6 h): 8.0 days | Mortality Number (MCMV; 5.6 mg/kg at 6 h): 1/15 | Mortality Percent (MCMV; 5.6 mg/kg at 6 h): 7% | MDD (Mean Day of Death) (MCMV; 5.6 mg/kg at 24 h): 6.3 days | Mortality Number (MCMV; 5.6 mg/kg at 24 h): 3/15 | Mortality Percent (MCMV; 5.6 mg/kg at 24 h): 20% | MDD (Mean Day of Death) (MCMV; 5.6 mg/kg at 48 h): 5.5 days | Mortality Number (MCMV; 5.6 mg/kg at 48 h): 6/15 | Mortality Percent (MCMV; 5.6 mg/kg at 48 h): 40% | MDD (Mean Day of Death) (MCMV; 16.7 mg/kg at 6 h): 8.7 days | Mortality Number (MCMV; 16.7 mg/kg at 6 h): 9/15 | Mortality Percent (MCMV; 16.7 mg/kg at 6 h): 60% | MDD (Mean Day of Death) (MCMV; 16.7 mg/kg at 24 h): 7.1 days | Mortality Number (MCMV; 16.7 mg/kg at 24 h): 12/15 | Mortality Percent (MCMV; 16.7 mg/kg at 24 h): 80% | MDD (Mean Day of Death) (MCMV; 16.7 mg/kg at 48 h): 8.4 days | Mortality Number (MCMV; 16.7 mg/kg at 48 h): 13/15 | Mortality Percent (MCMV; 16.7 mg/kg at 48 h): 87% | MDD (Mean Day of Death) (MCMV; 50 mg/kg at 6 h): 10.8 days | Mortality Percent (MCMV; 50 mg/kg at 6 h): 60% | Mortality Number (MCMV; 50 mg/kg at 6 h, i.p. twice daily 5 days): 9/15 | MDD (Mean Day of Death) (MCMV; 50 mg/kg at 24 h): 8.8 days | Mortality Number (MCMV; 50 mg/kg at 24 h): 14/15 | Mortality Percent (MCMV; 50 mg/kg at 24 h): 93% | MDD (Mean Day of Death) (MCMV; 50 mg/kg at 48 h): 7.5 days | Mortality Number (MCMV; 50 mg/kg at 48 h): 13/15 | Mortality Percent (MCMV; 50 mg/kg at 48 h): 87% | life span of MCMV-infected mice (in words) (MCMV; all doses): prolonged life span (increased the mean day of death) at all doses

OCC(CO)OCn1cc(Br)c2c(NO)ncnc21 [UMJD 299, 4-hydroxylamino-5-bromo-7-[(1,3-dihydroxy-2-propoxy)methyl]pyrrolo[2,3-d]pyrimidine]
inhibition at 100 µM [2]: > 50%

Source: patent US4968686A, “Acyclic pyrrolo [2,3-d]pyrimidine analogs as antiviral agents” (The Regents of The University of Michigan, priority 1989, dated 1990)
